Results published in patent publication US4900744A, “Antihypercholesterolemic 4,5-diaryl-2-substituted thioimidazoles” (E. I. Du Pont de Nemours and Company, priority 1988, dated 1990).

Columns and labels:
[1] = target: acyl-CoA:cholesterol acyltransferase (ACAT); experiment: Inhibition of Acyl CoA:Cholesterol Acyltransferase (ACAT) in Hepatic Microsomes; type: biochemical, rat (male Sprague Dawley); details: rat hepatic microsomes, 75 μM 14C-oleoyl-CoA, pH 7.4, 37° C., 15 min preincubation, 10 min assay; read-out: IC50 In Vitro ACAT
Description: The ability of the compounds of this invention to inhibit ACAT, the enzyme responsible for the intracellular synthesis of cholesteryl esters, was tested as follows. Male Sprague Dawley rats weighing 150-300 g were fed rat chow ad libitum. The animals were fasted for twenty-four hours prior to being sacrificed by decapitation. The livers were perfused in situ with 50 ml of cold 0.25 M sucrose, excised, and homogenized in three volumes of 0.1 M phosphate buffer, pH 7.4 containing 0.5 mM EDTA (ethylenediaminetetraacetic acid), 1.0 mM glutathione, 0.25 M sucrose and 20 μM leupeptin. Microsomes were obtained by differential centrifugation; the supernatant from an initial spin at 15,000×g. for 15 minutes (which removed cell debris and mitochondria) was centrifuged at 105,000×g. for 1 hr to pellet the microsomes. The microsomes were suspended in homogenization buffer reisolated by centrifugation and stored at -70° C. Microsomes were used within one month of preparation.
The control assay in a final volume of 200 μl consisted of 200 μg of microsomal protein, 75 μM ^14 C-oleoyl-CoA (10,000 dpm/nmol) in 0.1 M phosphate, pH 7.4 containing 1 mM glutathione. Compounds were added in 5-10 μl of DMSO (dimethyl sulfoxide) and additional controls were run with DMSO only. All components, except the radiolabeled oleoyl-CoA, were preincubated for 15 min at 37° C. prior to the initiation of the reaction by addition of radiolabeled oleoyl-CoA. The assay was terminated after 10 min by the addition of 500 μl of hexane: isopropanol (3:2, v/v). 20,000 dpm of ^3 H-cholesteryl oleate and 10 μg of unlabeled cholesteryl oleate and oleic acid were added as an internal standard and carriers, respectively. After allowing 10 min for lipid extraction, the samples were centrifuged at 1,000×g for 10 mins to separate the solvent layers. 200 μl of the top (hexane) layer containing the neutral lipids was spotted onto a Baker SI250-Pa silica gel TLC plate and the plate developed using a hexane: diethyl ether: acetic acid (170:30:1 v/v/v) mobile phase. The lipids were visualized by their interaction with iodine vapor and the cholesteryl ester spot was scraped into a scintillation vial and the radioactivity on the gel was determined by standard liquid scintillation spectrometry. The specific activity of ACAT in control microsomes averaged 260 pmol/min/mg microsomal protein. The % inhibition of the various compounds was the ACAT activity in the presence of the inhibitor divided by the activity of the control (vehicle alone) times 100%-100.

[2] = tested on: J774 cells; experiment: Inhibition of Cholesterol Esterification in Mammalian Cells (macrophage-like cell line J774); type: cell-based; details: Mus musculus; murine macrophage-like cell line J774, +LDL (200 μg/ml), 14C-oleic acid incorporation into cholesteryl ester
Description: The esterification of cholesterol was determined in the murine macrophage-like cell line J774. J774 cells were placed in 60 mm dishes at a density of 200,000 cells per dish in 3.0 ml of Dulbecco's minimal essential medium (DMEM) containing 10% Fetal bovine serum. Cells were incubated at 37° C. in an atmosphere of 5% CO2 and 93% humidity. After 24 hr, the cells were washed with 2 ml of Hanks buffered saline and the media changed to 1.5 ml of DMEM containing 1% Cabosil® treated serum (CTS) to up-regulate LDL receptors. At 56 hr, fresh media that contained 1% CTS was added to the cells; in all but control dishes the media contained 200 μg LDL/ml to increase the intracellular concentration of cholesterol and promote esterification. At 72 hr, various inhibitors were added to the cells in DMSO (10 μl/ml maximum). At 74 hr, the cells were pulsed with 0.1 mM ^14 C-oleic acid (20,000 dpm/nmol) complexed with bovine serum albumin (BSA) to follow cholesteryl ester formation. The experiment was terminated at 76 hrs by washing the monolayers 3 times with 3 ml of Tris-buffered saline at 4° C. The lipids were extracted by incubating the monolayers with 1.5 ml of hexane: isopropanol (3:2, v/v) for 30 mins under gentle agitation. During this period, 20,000 dpm ^3 H-cholesteryl linoleate and 10 μg of cholesteryl oleate were added as an internal standard and carrier respectively. The organic solvent was removed and the cells were washed with an additional 1.0 ml of hexane: isopropanol which was combined with the original extract. The cells were allowed to dry overnight, digested with 1.5 ml of 0.2 N sodium hydroxide for 1 hr, and an aliquot of the solubilized protein used for protein determination using the Lowry method. The organic extract was taken to dryness, the residue resuspended in 100 μl of chloroform and the lipids separated on silica gel impregnated glass fiber plates using a hexane: diethyl ether: acetic acid (170:30:1, v/v/v) solvent system. The cholesteryl ester spot was visualized with iodine, cut out, and transferred to scintillation vials to determine the amount of radioactivity. The conversion of oleic acid to cholesteryl ester in the control averaged 0.54 nmol/hr/mg protein and was increased upon the addition of LDL to about 2.37 nmol/hr/mg protein. Inhibition of esterification by various compound was determined by dividing the specific activity (+LDL) in the presence of the inhibitor by the specific activity (+LDL) of the vehicle alone times 100% -100.

SMILES	IC50 [1] [µM]	IC50 [2] [µM]
CCOC(=O)CCCCCCCSc1nc(-c2ccccc2)c(-c2ccccc2)[nH]1 [Example 1, 8-(4,5-Diphenyl-1H-imidazol-2-ylthio)octanoic acid ethyl ester]	2	19
CCOC(=O)CCCCCCCCCCSc1nc(-c2ccccc2)c(-c2ccccc2)[nH]1 [Example 2, 11-(4,5-Diphenyl-1H-imidazol-2-ylthio)undecanoic acid ethyl ester]	1	17
O=C(O)CCCCCCCSc1nc(-c2ccccc2)c(-c2ccccc2)[nH]1 [Example 57, 8-(4,5-Diphenyl-1H-imidazol-2-ylthio)octanoic acid]	2	80
O=C(O)CCCCCCCCCCSc1nc(-c2ccccc2)c(-c2ccccc2)[nH]1 [Example 58, 11-(4,5-Diphenyl-1H-imidazol-2-ylthio)undecanoic acid]	1	17
O=C(O)CCCCCCCOc1nc(-c2ccccc2)c(-c2ccccc2)n1-c1ccccc1 [Octimibate, reference compound]	23	78
